Test results as given in patent US7541358B2, “1-aryl-or 1-alkylsulfonylbenzazole derivatives as 5-hydroxytryptamine-6 ligands” (Wyeth, priority 2001, dated 2009).

Tests used:
[1] = biological target: T1, human cloned 5-HT6 receptors (Homo sapiens, UniProt P50406); assay: 5-HT6 binding affinity ([3H]-LSD displacement, membranes of Hela cells expressing human cloned 5-HT6 receptors); details: [3H]-LSD 3.0 nM, Hela cell membranes; for Ki: 120 min at room temperature; for % inhibition at 1 μM concentration / inhibition at 1 µM: 1 μM test compound; for inhibition at 1 µM: read-out: % inhibition at 1 μM concentration
T1 construct: expressed in transfected cells; host or cells: Hela cells
Experimental: The affinity of test compounds for the serotonin 5-HT6 receptor is evaluated in the following manner. Cultured Hela cells expressing human cloned 5-HT6 receptors are harvested and centrifuged at low speed (1,000×g) for 10.0 min to remove the culture media. The harvested cells are suspended in half volume of fresh physiological phosphate buffered saline solution and recentrifuged at the same speed. This operation is repeated. The collected cells are then homogenized in ten volumes of 50 mM Tris.HCl (pH 7.4) and 0.5 mM EDTA. The homogenate is centrifuged at 40,000×g for 30.0 min and the precipitate is collected. The obtained pellet is resuspended in 10 volumes of Tris.HCl buffer and recentrifuged at the same speed. The final pellet is suspended in a small volume of Tris.HCl buffer and the tissue protein content is determined in aliquots of 10-25 μl volumes. Bovine Serum Albumin is used as the standard in the protein determination according to the method described in Lowry et al., J. Biol. Chem., 193:265 (1951). The volume of the suspended cell membranes is adjusted to give a tissue protein concentration of 1.0 mg/ml of suspension. The prepared membrane suspension (10 times concentrated) is aliquoted in 1.0 ml volumes and stored at −70° C. until used in subsequent binding experiments.
Binding experiments are performed in a 96 well microtiter plate format, in a total volume of 200 μl. […] The test compounds are added in 20.0 μl volume.
The reaction is allowed to proceed in the dark for 120 min at room temperature, at which time, the bound ligand-receptor complex is filtered off on a 96 well unifilter with a Packard Filtermate® 196Harvester. The bound complex caught on the filter disk is allowed to air dry and the radioactivity is measured in a Packard TopCount® equipped with six photomultiplier detectors, after the addition of 40.0 μl Microscint®-20 scintillant to each shallow well. The unifilter plate is heat-sealed and counted in a PackardTopCount® with a tritium efficiency of 31.0%.
Binding in the presence of varying concentrations of test compound is expressed as a percentage of specific binding in the absence of test compound. The results are plotted a log % bound versus log concentration of test compound. […] A linear regression line of data points is plotted, from which the IC50 value is determined and the Ki value is determined based upon the following equation: Ki=IC50/(1+L/KD) where L is the concentration of the radioactive ligand used and KD is the dissociation constant of the ligand for the receptor, both expressed in nM.

T1 sequence (P50406 whole entry): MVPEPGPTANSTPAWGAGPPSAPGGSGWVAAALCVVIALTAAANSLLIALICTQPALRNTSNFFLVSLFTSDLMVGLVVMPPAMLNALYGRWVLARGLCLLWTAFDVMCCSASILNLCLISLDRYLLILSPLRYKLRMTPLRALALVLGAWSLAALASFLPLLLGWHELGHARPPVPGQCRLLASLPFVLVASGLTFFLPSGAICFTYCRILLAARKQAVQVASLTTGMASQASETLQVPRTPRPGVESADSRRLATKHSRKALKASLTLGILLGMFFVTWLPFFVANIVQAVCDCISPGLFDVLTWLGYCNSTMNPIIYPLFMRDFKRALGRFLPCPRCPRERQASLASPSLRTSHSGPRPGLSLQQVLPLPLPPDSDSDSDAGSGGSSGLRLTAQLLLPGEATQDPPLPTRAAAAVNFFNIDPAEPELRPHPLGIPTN

melting point	Ki [1]	inhibition at 1 µM [1]	Compound	% inhibition at 1 μM concentration [1]
217 to 219 °C	71 nM	–	Cc1c(S(=O)(=O)n2ccc3c(OCCN4CCCCC4)cccc32)sc2ccc(Cl)cc12 [Example 15, 1-[(5-chloro-3-methyl-1-benzothien-2-yl)sulfonyl]-4-[2-(piperidin-1-yl)ethoxy]-1H-indole]	–
187 to 189 °C	12 nM	–	O=S(=O)(c1ccc(Cl)s1)n1ncc2c(OCCN3CCCCC3)cccc21 [Example 24, 1-[(5-chlorothien-2-yl)sulfonyl]-4-[2-(piperidin-1-yl)ethoxy]-1H-indazole]	–
–	–	–	O=[N+]([O-])c1ccc(S(=O)(=O)n2ncc3c(OCCN4CCCCC4)cccc32)cc1 [Example 20, 1-[(4-nitrophenyl)sulfonyl]-4-[2-(l-piperidinyl)ethoxy]1H-indazole]	76% @ 1 μM*
60 °C	22 nM	–	O=S(=O)(c1c(Cl)nc2sccn12)n1ccc2cc(OCCN3CCCCC3)ccc21 [Example 13, 1-[(6-chloroimidazo[2,1-b][1,3]thiazol-5-yl)sulfonyl]-5-[2-(piperidin-1-yl)ethoxy]-1H-indole]	–
216 to 218 °C	53 nM	–	Cc1c(S(=O)(=O)n2ncc3c(OCCN4CCCCC4)cccc32)sc2ccc(Cl)cc12 [Example 26, 1-[(5-chloro-3-methyl-1-benzothien-2-yl)sulfonyl]-4-[2-(piperidin-1-yl)ethoxy]-1H-indazole]	–
214 to 216 °C	18 nM	–	O=S(=O)(c1cc(Cl)c(Cl)s1)n1ncc2c(OCCN3CCCCC3)cccc21 [Example 23, 1-[(4,5-dichlorothien-2-yl)sulfonyl]-4-[2-(piperidin-1-yl)ethoxy]-1H-indazole]	–
222 to 224 °C	–	65%	O=S(=O)(c1cc(Cl)c(Cl)s1)n1ccc2cc(OCCN3CCCCC3)ccc21 [Example 12, 1-[(4,5-dichlorothien-2-yl)sulfonyl]-5-[2-(piperidin-1-yl)ethoxy]-1H-indole]	–
88 to 90 °C	2 nM	–	O=S(=O)(c1c(Cl)nc2sccn12)n1ncc2c(OCCN3CCCCC3)cccc21 [Example 22, 1-[(6-chloroimidazo[2,1-b][1,3]thiazol-5-yl)sulfonyl]-4-[2-(piperidin-1-yl)ethoxy]-1H-indazole]	–
–	–	–	N,N-Bis(3-methoxybenzyl)-N-(2-{[1-(phenylsulfonyl)-1H-indol-4-yl]oxy}ethylamine [Example 7a]	94% @ 1 μM*
172 to 175 °C	8 nM	–	O=S(=O)(c1cccs1)n1ncc2c(OCCN3CCCCC3)cccc21 [Example 25, 4-[2-(piperidin-1-yl)ethoxy]-1-(thien-2-ylsulfonyl)-1H-indazole]	–
–	–	–	N-(3-methoxybenzyl)-N-(2-{[1-(phenylsulfonyl)-1H-indol-4-yl]oxy}ethylamine hydrochloride [Example 7b]	95% @ 1 μM*
222 to 224 °C	–	51%	O=S(=O)(c1ccc(Cl)s1)n1ccc2cc(OCCN3CCCCC3)ccc21 [Example 11, 1-[(5-chlorothien-2-yl)sulfonyl]-5-[2-(piperidin-1-yl)ethoxy]-1H-indole]	–
–	–	65%	Cc1c(S(=O)(=O)n2ccc3cc(OCCN4CCCCC4)ccc32)sc2ccc(Cl)cc12 [Example 14, 1-[(5-chloro-3-methyl-1-benzothien-2-yl)sulfonyl]-5-[2-(piperidin-1-yl)ethoxy]-1H-indole]	–
